Values after ≈ are worked out from the molar mass of the structure shown.
Test system: measles virus
Assay: microbe, parasite or virus in culture
Details: Measles morbillivirus, 24 h

| Structure (SMILES) | MIC50 [µM] |
| --- | --- |
| CCc1cnc(-n2nc(OC(C)C)c(Cc3ccccc3)c2C)nc1 [example 139, 2-(4-benzyl-3-isopropoxy-5-methyl-1H-pyrazol-1-yl)-5-ethylpyrimidine] | 0.0005 to 0.05 (≈ 0.000168 to 0.0168 µg/mL) |
| CCc1cnc(-n2nc(OCCCN(C)C)c(Cc3ccccc3)c2C)nc1 [example 140, 3-(4-benzyl-1-(5-ethylpyrimidin-2-yl)-5-methyl-1H-pyrazol-3-yloxy)-N,N-dimethylpropan-1-amine] | 0.5 to 5 (≈ 0.19 to 1.9 µg/mL) |
| CCC(CC)Oc1nn(-c2ncc(C3CC3)cn2)c(C)c1Cc1ccccc1 [example 141, 2-(4-benzyl-5-methyl-3-(pentan-3-yloxy)-1H-pyrazol-1-yl)-5-cyclopropylpyrimidine] | 0.0005 to 0.05 (≈ 0.000188 to 0.0188 µg/mL) |
| CCC(C)Oc1nn(-c2ncc(C3CC3)cn2)c(C)c1Cc1ccccc1 (centres unmarked) [example 142, 2-(4-benzyl-3-sec-butoxy-5-methyl-1H-pyrazol-1-yl)-5-cyclopropylpyrimidine] | 0.0005 to 0.05 (≈ 0.000181 to 0.0181 µg/mL) |
| COc1cc(-c2ccc(Cl)c(Cl)c2)n(-c2ccccn2)n1 [example 143, 2-(5-(3,4-dichlorophenyl)-3-methoxy-1H-pyrazol-1-yl)pyridine] | > 5 |
| COc1cc(-c2ccc(Cl)cc2Cl)n(-c2ccccn2)n1 [example 144, 2-(5-(2,4-dichlorophenyl)-3-methoxy-1H-pyrazol-1-yl)pyridine] | > 5 |
| CCOc1cc(-c2ccc(OC)cc2)n(-c2ccccn2)n1 [example 145, 2-(3-ethoxy-5-(4-methoxyphenyl)-1H-pyrazol-1-yl)pyridine] | > 5 |
| COc1cc(-c2ccc(C(C)(C)C)cc2)n(-c2ccccn2)n1 [example 146, 2-(5-(4-tert-butylphenyl)-3-methoxy-1H-pyrazol-1-yl)pyridine] | > 5 |
| CCOc1cc(-c2ccc(Cl)cc2)n(-c2ccccn2)n1 [example 147, 2-(5-(4-chlorophenyl)-3-ethoxy-1H-pyrazol-1-yl)pyridine] | > 5 |
| COc1cccc(Cc2cc(OC)nn2-c2ccccn2)c1 [example 148, 2-(3-methoxy-5-(3-methoxybenzyl)-1H-pyrazol-1-yl)pyridine] | > 5 |
| CCOc1cc(C(=O)c2ccc(Cl)cc2)n(-c2ccccn2)n1 [example 149, (4-chlorophenyl)(3-ethoxy-1-(pyridin-2-yl)-1H-pyrazol-5-yl)methanone] | > 5 |
| CCOc1nn(-c2ncc(CC)cn2)c(C)c1C(=O)c1ccccc1 [example 150, (3-ethoxy-1-(5-ethylpyrimidin-2-yl)-5-methyl-1H-pyrazol-4-yl)(phenyl)methanone] | 0.5 to 5 (≈ 0.168 to 1.68 µg/mL) |
| CCOc1nn(-c2ccc(C3CC3)cn2)c(C)c1C(=O)c1ccccc1 [example 151, (1-(5-cyclopropylpyridin-2-yl)-3-ethoxy-5-methyl-1H-pyrazol-4-yl)(phenyl)methanone] | 0.05 to 0.5 (≈ 0.0174 to 0.174 µg/mL) |
| CCOc1nn(-c2ncc(CC)cn2)c(C)c1Sc1ccccc1 [example 152, 2-(3-ethoxy-5-methyl-4-(phenylthio)-1H-pyrazol-1-yl)-5-ethylpyrimidine] | 0.05 to 0.5 (≈ 0.017 to 0.17 µg/mL) |
| CCOc1nn(-c2ncc(CC)cn2)c(C)c1-c1ccccc1 [example 153, 2-(3-ethoxy-5-methyl-4-phenyl-1H-pyrazol-1-yl)-5-ethylpyrimidine] | 0.5 to 5 (≈ 0.154 to 1.54 µg/mL) |
| CCOc1nn(-c2ncc(CC)cn2)c(C)c1-c1ccc(F)cc1F [example 154, 2-(4-(2,4-difluorophenyl)-3-ethoxy-5-methyl-1H-pyrazol-1-yl)-5-ethylpyrimidine] | > 5 |
| CCOc1nn(-c2ccccn2)c(C)c1-c1ccccc1Cl [example 155, 2-(4-(2-chlorophenyl)-3-ethoxy-5-methyl-1H-pyrazol-1-yl)pyridine] | > 5 |
| CCOc1nn(-c2ccccn2)c(C)c1-c1cccc(Cl)c1 [example 156, 2-(4-(3-chlorophenyl)-3-ethoxy-5-methyl-1H-pyrazol-1-yl)pyridine] | > 5 |

| Structure (SMILES) | MIC50 [µM] |
| --- | --- |
| CCOc1nn(-c2ccccn2)cc1-c1ccc(Cl)cc1 [example 157, 2-(4-(4-chlorophenyl)-3-ethoxy-1H-pyrazol-1-yl)pyridine] | > 5 |
| CCOc1nn(-c2ccccn2)c(C)c1-c1cccc(C(F)(F)F)c1 [example 158, 2-(3-ethoxy-5-methyl-4-(3-(trifluoromethyl)phenyl)-1H-pyrazol-1-yl)pyridine] | > 5 |
| CCOc1nn(-c2ccccn2)c(C)c1-c1ccc(C(F)(F)F)cc1 [example 159, 2-(3-ethoxy-5-methyl-4-(4-(trifluoromethyl)phenyl)-1H-pyrazol-1-yl)pyridine] | > 5 |
| CCOc1nn(-c2ccccn2)c(C)c1-c1ccc(OC)cc1 [example 160, 2-(3-ethoxy-4-(4-methoxyphenyl)-5-methyl-1H-pyrazol-1-yl)pyridine] | > 5 |
| CCOc1nn(-c2ncc(CC)cn2)c(C)c1-c1ccc(OC)cc1 [example 161, 2-(3-ethoxy-4-(4-methoxyphenyl)-5-methyl-1H-pyrazol-1-yl)-5-ethylpyrimidine] | 0.5 to 5 (≈ 0.169 to 1.69 µg/mL) |
| CCOc1nn(-c2ccc(C3CC3)cn2)c(C)c1-c1ccccc1 [example 161A, 5-cyclopropyl-2-(3-ethoxy-5-methyl-4-phenyl-1H-pyrazol-1-yl)pyridine] | 0.5 to 5 (≈ 0.16 to 1.6 µg/mL) |
| CCOc1nn(-c2ccccn2)c(C)c1Cc1ccccc1Cl [example 162, 2-(4-(2-chlorobenzyl)-3-ethoxy-5-methyl-1H-pyrazol-1-yl)pyridine] | > 5 |
| CCOc1nn(-c2ccccn2)c(C)c1Cc1cccc(Cl)c1 [example 163, 2-(4-(3-chlorobenzyl)-3-ethoxy-5-methyl-1H-pyrazol-1-yl)pyridine] | > 5 |
| CCOc1nn(-c2ccc(OC)cc2)cc1Cc1ccccc1 [example 164, 4-benzyl-3-ethoxy-1-(4-methoxyphenyl)-1H-pyrazole] | > 5 |
| Cc1c(Cc2ccccc2)c(OC(C)C)nn1-c1ccccn1 [example 165, 2-(4-benzyl-3-isopropoxy-5-methyl-1H-pyrazol-1-yl)pyridine] | > 5 |
| CCOc1ccn(-c2ncc(CC)cn2)n1 [example 166, 2-(3-ethoxy-1H-pyrazol-1-yl)-5-ethylpyrimidine] | 0.5 to 5 (≈ 0.109 to 1.09 µg/mL) |
| CCOc1nn(-c2ncc(CC)c(Cc3ccccc3)n2)cc1I [example 167, 4-benzyl-2-(3-ethoxy-4-iodo-1H-pyrazol-1-yl)-5-ethylpyrimidine] | 0.5 to 5 (≈ 0.217 to 2.17 µg/mL) |
| COCc1c(Cc2ccccc2)c(OC(C)C)nn1-c1ncc(C2CC2)cn1 [example 168, 2-(4-benzyl-3-isopropoxy-5-(methoxymethyl)-1H-pyrazol-1-yl)-5-cyclopropylpyrimidine] | 0.05 to 0.5 (≈ 0.0189 to 0.189 µg/mL) |
| CCN(CC)Cc1c(Cc2ccccc2)c(OC(C)C)nn1-c1ncc(C2CC2)cn1 [example 169, N-((4-benzyl-1-(5-cyclopropylpyrimidin-2-yl)-3-isopropoxy-1H-pyrazol-5-yl)methyl)-N-ethylethanamine] | > 5 |
| CCOc1nn(-c2ccc(C(C)C)cn2)c(C)c1Cc1ccccc1 [example 170, 2-(4-benzyl-3-ethoxy-5-methyl-1H-pyrazol-1-yl)-5-isopropylpyridine] | 0.5 to 5 (≈ 0.168 to 1.68 µg/mL) |
| CCOc1nn(-c2ncc(C)cn2)c(C)c1Cc1ccccc1 [example 171, 2-(4-benzyl-3-ethoxy-5-methyl-1H-pyrazol-1-yl)-5-methylpyrimidine] | 0.0005 to 0.05 (≈ 0.000154 to 0.0154 µg/mL) |
| CCOc1nn(-c2ccc(C3CC3)cn2)c(C)c1Cc1ccccc1 [example 172, 2-(4-benzyl-3-ethoxy-5-methyl-1H-pyrazol-1-yl)-5-cyclopropylpyridine] | 0.05 to 0.5 (≈ 0.0167 to 0.167 µg/mL) |

Reference: patent EP2929883A1, “Pyrazole derivatives as dihydroorotate dehydrogenase (DHODH) inhibitors” (INSTITUT PASTEUR, priority 2014, dated 2015)
